Experimental data reported in patent US8841633B2, “Method and apparatus for detecting pharmaceuticals in a sample” (priority 2009, dated 2014).
Where two headings read alike, the source gives them in different places.

How the values were obtained:
coagulation of the blood = assay: International Normalized Ratio (INR) of patients treated with warfarin; assay type: in vivo, human
Procedure: (§1) In connection with the retrieval of the blood sample, the patients respective International Normalized Ratio (INR) were measured, which is a well known type of measure indicative of the coagulation of the blood.

[1] = time-resolved fluorescence of isolated warfarin in PBS; assay type: physicochemical; conditions: excitation 334 nm
[2] = mean of three ± SEM
Procedure: The values are given as mean values of three measurements±standard error of the mean.
as §1

[3] = blood sample of patient no. 1 treated with warfarin
[4] = blood sample of patient no. 2 treated with warfarin

With `CC(=O)CC(c1ccccc1)c1c(O)c2ccccc2oc1=O` (stereo not shown) [Warfarin, warfarin] the INR value (coagulation of the blood; patient no. 1 treated with warfarin) was 3.0, the INR value (coagulation of the blood; patient no. 2 treated with warfarin) was 1.9 and the “excited state lifetime τ1 (unresolved)” value [1] was ≤ 100 ps. For the same compound, the “Amplitude A1” value [2, 3] was 69.4 ± 0.2%, the “Amplitude A2” value [2, 3] was 21.0 ± 0.2% and the “Amplitude A3” value [2, 3] was 9.6 ± 0.1%. For the same compound, the “Fluorescence lifetime τ1” value [2, 3] was 0.10 ± 0.00 ns, the “Fluorescence lifetime τ2” value [2, 3] was 1.50 ± 0.04 ns and the “Fluorescence lifetime τ3” value [2, 3] was 4.05 ± 0.01 ns. The “Amplitude A1” value [2, 4] was 96.0 ± 0.3%, the “Amplitude A3” value [2, 4] was 4.0 ± 0.3% and the “Fluorescence lifetime τ1” value [2, 4] was 0.06 ± 0.00 ns. For the same compound, the “Fluorescence lifetime τ3” value [2, 4] was 2.77 ± 0.02 ns.
